Measured values published in patent publication EP2974714B1, “USE OF DERIVATIVES WITH C-O-P BONDS IN PATIENTS WITH RENAL FAILURE” (LABORATORIS SANIFIT, S.L., priority 2013, dated 2014).

Key:
[1] = tested on: tissue calcification in a chronic renal impairment model (5/6 nephrectomised rats); experiment: 5/6 nephrectomy model, IP6 by i.v. bolus; assay type: in vivo, SD rats; settings: i.v. bolus 1 or 5 mg/kg, 8 weeks
Method: Experimental: 48 SD rats were 5/6 nephrectomised by complete right lateral nephrectomy and 2/3 partial nephrectomy of the left kidney. 16 animals per group were treated intravenously (bolus) with 2 ml/kg saline, 1 mg/kg IP6 or 5 mg/kg IP6. The animals received a phosphate-rich diet (1% Ca, 1.2% P) containing 20% lactose. After 8 weeks the aorta, heart and remaining 1/3 kidney were collected, and the tissue calcium content determined.

cardiovascular function = experiment: Cardiovascular function after 2 h intravascular infusion in conscious dogs by telemetry; assay type: in vivo; settings: for peak IP6 levels: dogs
Method: Experimental: 4 male dogs were treated with 3, 10 and 30 mg/kg IP6 by infusion for 2 h in a Latin square design. A washout period of one week was performed between doses. ECGs were measured telemetrically at 1 h and 20 minutes prior to infusion and 5, 15, 30, 45 minutes, 1, 2, 6 and 24 h post-infusion. In a second stage, blood samples were taken for PK, for the same doses, at 20 minutes prior to infusion and 5, 15, 30 minutes and 1, 1.5, 2, 3 and 6 h post-infusion. In this case the washout period between doses was 2 days. Total and free calcium in the blood samples was also measured.

[2] = PK profile of IP6 s.c. in rats with normal and diminished kidney function; assay type: in vivo, Wistar rats
Method: Experimental: a single s.c. dose (10 mg/kg) was administered to rats with normal kidney function. Plasma samples were obtained at different timepoints up to 60 minutes. A different group of Wistar rats received oral treatment with adenine 600 mg/kg (p.o.) for 10 days to induce renal impairment. Alpha-calcidol (300 ng/kg) was administered on days 11 and 13 and plasma samples were collected at different timepoints up to 60 minutes on day 14. The plasma IP6 concentrations were quantified for both groups.

[3] = tested on: tissue calcification in an animal model of chronic renal impairment (adenine); experiment: Adenine model, bolus-type s.c. administration; assay type: in vivo, male Wistar rats; settings: s.c. bolus 3, 10 and 30 mg/kg, 28 days, adenine uraemic rats
Method: Experimental: CKD was induced in 4 groups (n=12) of male Wistar rats by oral (p.o.) treatment with adenine (600 mg/kg/day) daily for 10 days. After treatment with adenine, the rats received alpha-calcidol at a dose of 300 ng/kg (3x/week, p.o.) until day 28. From day 0 until sacrifice (day 28), the animals were treated with a 2 ml/kg s.c. bolus of 0, 3, 10 and 30 mg/kg IP6. At each treatment, 3 additional animals were included to evaluate the […] for IP6. After 28 days the aorta, heart and right kidney were collected, and the tissue calcium content determined.

[4] = PK profile of IP6 by 4 h intravenous infusion in normal and uraemic rats; assay type: in vivo, Wistar rats
Method: Experimental: Wistar rats with normal kidney function were treated daily with a dose of 10 or 50 mg/kg IP6 by intravenous infusion over 4 h. Plasma samples were obtained at different timepoints up to 4 hours on day 0. The animals were then treated orally with 600 mg/kg (p.o.) adenine for 10 days to induce renal impairment. The animals were treated with alpha-calcidol (300 ng/kg) on days 11 and 13 and plasma samples were collected at different timepoints up to 4 hours on day 14. The plasma IP6 levels were quantified for both groups.

[5] = Administration of IP6 via the dialysis system (dialysability, calcium chelation in blood); assay type: in vitro ADME, human
Method: Experimental: 1 litre of human blood obtained from patients undergoing therapeutic phlebotomy was introduced into a recipient forming a closed dialysis circuit to simulate a real dialysis. Two experiments were performed (administration pre- and post-dialyser, both in bypass and dialysis mode), administering IP6 to human blood for 20 minutes when outside the recipient (which simulated the animal or human body) and circulating via the dialysis circuit. The recipient containing 1 litre of whole blood at a controlled temperature of 37°C is connected to the dialysis apparatus to form a closed circuit. The dialysis apparatus will be connected for 1 hour (dialysis fluid flow of 500 ml/min and blood flow of 350 ml/min). Blood samples are collected at different times to determine the IP6 and ionic calcium levels.

[6] = Release of IP6 from the HAP surface; assay type: binding; settings: after incubation for 2 days in IP6-free solution
Method: Experimental: 130 mg HAP was incubated in triplicate with 7.6 µM IP6, at 37°C, pH 7.4, for different time intervals while stirring continuously. Subsequently, the HAP with adsorbed IP6 was placed in an IP6-free solution and the amount of IP6 released from the surface thereof evaluated at different timepoints.

[7] = tested on: progression of vitamin D-induced vascular calcification; experiment: Progression of vitamin D-induced calcification (100,000 IU/kg x 3), rat model for 2 weeks; assay type: in vivo, SD rats; settings: highest dose (60 mg/kg s.c.), days 5 to 14
Method: Experimental: 48 SD rats were treated x3 with vitamin D (s.c. 100,000 IU/kg) to induce tissue calcification. Calcification was allowed to progress for 5 days, and treatment with 0, 10 or 60 mg/kg IP6 s.c. was administered from day 5 until day 14. Calcification of the kidneys and heart was evaluated.

[8] = tested on: vit D-induced cardiovascular calcification in rats; experiment: Inhibition of vit D-induced (300,000 IU/kg x 3) cardiovascular calcification by s.c. IP6; assay type: in vivo, male SD rats
Method: Experimental: male SD rats were divided into 9 groups. Two of said groups (sham and control groups) received s.c. saline 2 ml/kg; 6 groups received s.c. […] One group was treated with a s.c. Alzet pump loaded with 200 mg/ml IP6. Calcification was induced by oral administration of 300,000 IU/kg vitamin D (2 ml/kg) for 3 days starting on treatment day 3. […] The calcium content in heart, aorta and kidneys was determined after treatment for 7 days.

[9] = normal Wistar rats, single s.c. dose 10 mg/kg
[10] = uraemic rats (adenine), s.c. 10 mg/kg
[11] = uraemic rats, 10 mg/kg i.v. infusion over 4 h
[12] = uraemic rats, 50 mg/kg i.v. infusion over 4 h

O=P(O)(O)O[C@H]1[C@H](OP(=O)(O)O)[C@@H](OP(=O)(O)O)[C@H](OP(=O)(O)O)[C@@H](OP(=O)(O)O)[C@H]1OP(=O)(O)O [IP6, inositol hexaphosphate]
calcification inhibition (aorta, heart, remaining kidney) [1]: no evidence of calcification inhibition | peak IP6 levels (cardiovascular function; 3 mg/kg infusion for 2 h): 27 µM | peak IP6 levels (cardiovascular function; 10 mg/kg infusion for 2 h): 150 µM | peak IP6 levels (cardiovascular function; 30 mg/kg infusion for 2 h): 482 µM | mean blood ionic calcium concentrations (cardiovascular function; infusion for 2 h, 3, 10 and 30 mg/kg): unaffected | state of health, weight, cardiorespiratory function, ECG, body temperature and total and free potassium in blood (cardiovascular function; infusion for 2 h, 3, 10 and 30 mg/kg (any dose)): relatively unaffected | duration of measurable levels [2, 9]: at least 30 minutes | peak concentration (plasma IP6) [2, 9]: 7.4 µM | time of peak concentration post-administration [2, 9]: 15 min | peak concentration (plasma IP6) [2, 10]: 1.8 µM | time of peak concentration post-administration [2, 10]: 5 min | calcification inhibition (aorta, heart, right kidney) [3]: no evidence of calcification inhibition | concentration at 4 h ([4]; Wistar, rat, plasma, iv, uraemic rats, 10 mg/kg i.v. infusion over 4 h, read-out: plasma concentration after 4 hours): 1200 nM | peak plasma concentration ([4]; normal rats, 10 mg/kg i.v. infusion over 4 h): 8.4 µM | peak plasma concentration ([4]; normal rats, 50 mg/kg i.v. infusion over 4 h): 68.4 µM | peak concentration [4, 11]: 2.8 µM | time of peak concentration [4, 11]: 30 min | peak plasma concentration [4, 12]: 24.6 µM | time of peak plasma concentration [4, 12]: 4 h | period with approximately constant concentration ([4]; uraemic rats, 50 mg/kg i.v. infusion, from hour 1 to hour 4): 3 h | loss of IP6 via the dialysis membrane ([5]; administration via the dialysis line for 20 minutes, 1 litre human blood, 37°C): not lost via the dialysis membrane | effect on free calcium in blood ([5]; apparatus in bypass mode): chelates (sequesters) free calcium | effect on ionic calcium levels in blood ([5]; apparatus in dialysis mode): ionic calcium levels are restored | IP6 remaining bound to the HAP surface [6]: 80% | inhibition of the progression of heart calcification [7]: 100% | inhibition of the progression of renal calcification [7]: 95% | reduction in calcification ([8]; prolonged administration, s.c. Alzet pump loaded with 200 mg/ml IP6): 85% | efficacy (inhibition of calcification) ([8]; s.c. doses of 60 and 100 mg/kg): approximately 60% | minimum dose that produced a significant effect on calcification ([8]; s.c., 7 days treatment): 10 mg/kg | EC50 for inhibition of aortic calcification ([8]; s.c., dose-response): 3.75 mg/kg | Emax for inhibition of aortic calcification ([8]; s.c., dose-response): 65.5%
